Experimental data published in PMC2527810, “[^18F]FDG and [^18F]FLT uptake in human breast cancer cells in relation to the effects of chemotherapy: an in vitro study” (British Journal of Cancer, 2008).

Experiments:
MDA MB231 cells [1] = assay: Cellular FDG uptake after drug incubation; type: cell-based, human; conditions: IC50 concentration
Experimental: (§1) Cells were plated in six identical 24-well plates at 75 000 cells per ml. […] Control cells were plated in a concentration of 45 000 cells per ml, 4 days before tracer uptake. Cell culture medium was replaced 4 h before adding PET tracers. For FDG plates, medium was replaced with medium without glucose (+IC50 drugs concentration), as glucose competes with FDG uptake. For FLT plates, medium was replaced with medium without L-glutamine (+IC50 drugs concentration). The presence of L-glutamine in the culture medium may reduce FLT uptake, as glutamine is a source of thymidine monophosphate competing with FLT uptake through the de novo pathway.
(§2) One MBq per well FDG or FLT was added to the cells and incubated for 60 min at 37°C. After removal of excess tracer, cellular tracer uptake was determined with an ECAT Exact HR+ PET scanner (Siemens/CTI, Knoxville, TN, USA). Images were analysed using CAPP software (version 7.2, CTI/Siemens, Knoxville, TN, USA). Regions of interest (ROI) were drawn manually in a plane with visible tracer uptake. Next, ROIs were copied to all other planes and total activity per well was calculated and plotted against exact number of cells. Tracer uptake was also determined in an identical plate using the single-well gamma counter. Tracer uptake was corrected for the number of cells.

MDA MB231 cells [2] = assay: Cell cycle analysis after exposure to IC50 drug concentrations; type: cell-based, human; conditions: for cell cycle effect (in words): at IC50 concentrations
Experimental: For cell cycle analysis, cells were exposed to IC50 concentrations of the various drugs for 4, 24, 48 or 72 h, fixed in 70% ethanol (1 × 10^6 cells per ml) and stored at 4°C until analysis, as described previously ([Temmink et al, 2007]) according to a slightly modified protocol.

[3] = test system: TK-1 protein levels of MDA MB231 cells; assay: TK-1 protein levels by Western blot; conditions: for increase in TK-1 levels compared with untreated cells: abstract, time not stated
MDA MB231 cells [4] = assay: Cellular FLT uptake after drug incubation; type: cell-based, human; conditions: IC50 concentration
Experimental: as §1, §2

MDA MB231 cells [5] = assay: Cytotoxicity by sulforhodamine (SRB) assay; type: cell-based; conditions: Homo sapiens, MDA-MB-231, 72 h drug incubation, read-out: IC50 (50% reduction in growth)
Experimental: The human breast cancer cell line MDA MB231 (ATCC no. HTB-26) and CEM leukaemia cells (CEM wild type and TK-deficient CEM/TK-) were cultured in RPMI 1640 supplemented with 10% foetal bovine serum and 1% penicillin/streptomycin (P/S), at 5% CO2 in a humidified atmosphere at 37°C. Cell counting was performed with a Casy cell counter (Schärfe System GmbH, Reutlingen, Germany).
Cytotoxicity to 5-FU (Sigma Chemical Co., MO, St Louis, USA), doxorubicin (doxorubicin hydrochloride, Pfizer, Cappelle a/d IJssel, The Netherlands) and paclitaxel (Sigma Chemical Co.) was determined by sulforhodamine (SRB) assay. Briefly, cells were plated in 96-well plates and after 24 h, drugs were added at various concentrations, incubated for 72 h and the SRB assay was performed as described previously ([de Bruin et al, 2003]). The IC50 is the concentration resulting in 50% reduction in growth compared with untreated control cells.

[6] = test system: Thymidine kinase (TK) activity in MDA MB231 breast cancer cells; assay: TK enzyme activity (FLT phosphorylation) in lysates of drug-treated cells; type: cell-based, human; conditions: IC50 concentration; for TK activity compared with untreated cells (in words): 48 and 72 h, effects minor
Experimental: . Enzyme activity was also analysed in CEM cells and in the corresponding TK-1-deficient subtype to assess whether FLT phosphorylation only occurs in the presence of sufficient cytosolic TK-1.
Cell pellets were suspended in 50 mM Tris/1 mM EDTA (pH 7.4) and sonificated on ice. Lysates were spun down and supernatant diluted 1 : 8 in 50 mM Tris/1 mM EDTA (pH 7.4).
3′-deoxy-3′-[^18F]fluorothymidine was diluted with 50 mM Tris/1 mM EDTA (pH 7.4) and 1 : 1 mixed with 20 mM ATP, 10 mM MgCl2, resulting in an FLT concentration of about 60 MBq ml^−1 (6.32–18.89 pmol per sample). […] .
The assay was optimised for protein concentration and incubation times. Diluted cell lysates or purified TK-2 (kindly provided by A. Karlsson, Karolinska Institute, Stockholm, Sweden) were incubated with the FLT mixture for 15 min at 37°C and the reaction was stopped by heating the samples at 95°C for 5 min. Substrate (FLT) and product (FLT-phosphate) were separated by TLC and radioactivity was measured in a single-well gamma counter (Wallac1480 Wizard, Perkin Elmer Lifescience, MA, USA). Protein concentrations were measured in a Bio-Rad Bradford protein assay (Bio-Rad Laboratories, Hercules, CA, USA).

[7] = 48 h incubation, IC50 concentration

Row | Structure (SMILES) | Mean (±s.d.) change in FDG uptake compared with untreated cells (set to 100%) (MDA MB231 cells [1]; 4 h) | Mean (±s.d.) change in FDG uptake compared with untreated cells (set to 100%) (MDA MB231 cells [1]; 24 h) | Mean (±s.d.) change in FDG uptake compared with untreated cells (set to 100%) (MDA MB231 cells [1]; 48 h) | Mean (±s.d.) change in FDG uptake compared with untreated cells (set to 100%) (MDA MB231 cells [1]; 72 h) | cell cycle effect (in words) (MDA MB231 cells [2]) | Mean (±s.d.) change in TK-1 protein levels compared with untreated cells (set to 100%) ([3]; 4 h, IC50 concentration) | Mean (±s.d.) change in TK-1 protein levels compared with untreated cells (set to 100%) ([3]; 24 h, IC50 concentration) | Mean (±s.d.) change in TK-1 protein levels compared with untreated cells (set to 100%) ([3]; 48 h, IC50 concentration) | Mean (±s.d.) change in TK-1 protein levels compared with untreated cells (set to 100%) ([3]; 72 h, IC50 concentration) | Mean (±s.d.) change in FLT uptake compared with untreated cells (set to 100%) (MDA MB231 cells [4]; 4 h) | Mean (±s.d.) change in FLT uptake compared with untreated cells (set to 100%) (MDA MB231 cells [4]; 24 h) | Mean (±s.d.) change in FLT uptake compared with untreated cells (set to 100%) (MDA MB231 cells [4]; 48 h) | Mean (±s.d.) change in FLT uptake compared with untreated cells (set to 100%) (MDA MB231 cells [4]; 72 h) | increase in FLT uptake (MDA MB231 cells [4]; 72 h) | IC50 (MDA MB231 cells [5]) | TK activity compared with untreated cells (in words) [6] | increase in TK-1 levels compared with untreated cells [3] | increase in TK-1 levels ([3]; at 48 h, IC50 concentration) | other results
1 | CC(=O)O[C@H]1C(=O)[C@@]2(C)[C@H]([C@H](OC(=O)c3ccccc3)[C@]3(O)C[C@H](OC(=O)[C@H](O)[C@@H](NC(=O)c4ccccc4)c4ccccc4)C(C)=C1C3(C)C)[C@]1(OC(C)=O)CO[C@@H]1C[C@@H]2O [paclitaxel] | 105±41% | 125±99% | 207±163% | 228±182% | G2/M accumulation | 103±6% | 62±4% | 54±16% | 52±32% | 108±2% | 112±54% | 118±14% | 166±18% | 66% | 2.5 nM | increased TK activity |  |  | increase in FDG uptake (MDA MB231 cells [1]; after 48 h (at 48 and 72 h)): > 100%; increase in G2/M phase (MDA MB231 cells [2]; 4 h drug incubation, IC50 concentration): 1.2 fold; decrease in TK-1 levels ([3]; at 48 h, IC50 concentration): > 40%; FLT uptake change (in words) (MDA MB231 cells [4]; abstract): hardly changed
2 | O=c1[nH]cc(F)c(=O)[nH]1 [5-FU, 5-fluorouracil] | 67±2% | 70±13% | 69±21% | 45±20% | accumulation in the G1 phase | 163±1% | 122±38% | 184±53% | 443±58% | 99±45% | 113±7% | 101±8% | 46±32% |  | 5000 nM | increased TK activity | > 300 | two-fold | decrease in FDG uptake (MDA MB231 cells [1]; 72 h, listed as 5-fluorouracil): approximately 50%; decrease in FLT uptake (MDA MB231 cells [4]; 72 h): 54%; decrease in FLT uptake (MDA MB231 cells [4]; 72 h, listed as 5-fluorouracil): approximately 50%
3 | COc1cccc2c1C(=O)c1c(O)c3c(c(O)c1C2=O)C[C@@](O)(C(=O)CO)C[C@@H]3O[C@H]1C[C@H](N)[C@H](O)[C@H](C)O1 [doxorubicin] | 57±35% | 124±59% | 133±45% | 171±0% | G2/M accumulation | 64±6% | 130±78% | 177±71% | 473±348% | 123±83% | 137±52% | 494±232% | 273±209% | 173% | 200 nM |  | > 300 | two-fold | increase in FDG uptake (MDA MB231 cells [1]; 72 h): 71%; increase in FDG uptake (MDA MB231 cells [1]; at 24, 48 and 72 h): > 24%; decrease in G1 phase (MDA MB231 cells [2]; [7]): 90%; decrease in S phase (MDA MB231 cells [2]; [7]): 70%; accumulation in the G2/M phase (MDA MB231 cells [2]; 48 h incubation, IC50 concentration, vs control cells): two-fold; increase in FLT uptake (MDA MB231 cells [4]; irrespective of incubation time): > 24%; increase in TK activity compared with untreated cells ([6]; after 24 h): more than three-fold
